“And” between values parts separate entries of the source, which are not always exact repeats. Equal entries are not always repeated.
System: Donor 3 GMA T-Cell Lines
Assay: ATP proliferation assay (CellTiter Glo), Donor 3 GMA T-cell lines, incl. reactivity to non-canonical GA peptides
Format: cell-based, human
Conditions: for proliferation response to non-canonical GA peptides: 0, 1, 3, 10, 30 μg/mL; for Non-Canonical Peptide Non-Reactivity: proliferation <2 times no antigen control; for Non-Canonical Peptide Reactivity: at least one proliferation value >=2 times no antigen control

Substance: poly (Glu-Lys-Tyr; 6:3:1) [GLT 631]
- proliferation response to non-canonical GA peptides (165-B5G and 165-E7G, Day 81): responded well
- Non-Canonical Peptide Non-Reactivity (165-B5G): GLT 631
- Non-Canonical Peptide Non-Reactivity (165-C5G): GLT 631
- Non-Canonical Peptide Reactivity (165-E7G): GLT 631
- Non-Canonical Peptide Non-Reactivity (165-E9G): GLT 631
- Non-Canonical Peptide Non-Reactivity (165-F5G): GLT 631
- Non-Canonical Peptide Non-Reactivity (165-F10G): GLT 631
- proliferation response to non-canonical GA peptides (165-H11G, Day 50): responded
- Non-Canonical Peptide Reactivity (165-H11G): GLT 631
- Reactive T-Cell Line (Donor 3 GMA lines, at least a 50% increase in proliferation relative to a control after stimulation with the non-canonical GA peptide): 165-H11G (Donor 3)
- Nonreactive T-Cell Line (Donor 3 GMA lines, stimulation with the non-canonical GA peptide): 165-B5G (Donor 3) and 165-C5G (Donor 3) and 165-C8G (Donor 3) and 165-E7G (Donor 3) and 165-E9G (Donor 3) and 165-F5G (Donor 3) and 165-F10G (Donor 3)
- Proliferation (luminescent ATP assay), Mean (T-cell line 165-05G, 1 μg/mL antigen, Day 50 of culturing, No Antigen Value 2149): 1871 RLU
- Proliferation (luminescent ATP assay), Mean (T-cell line 165-05G, 3 μg/mL antigen, Day 50 of culturing, No Antigen Value 2149): 2268 RLU
- Proliferation (luminescent ATP assay), Mean (T-cell line 165-05G, 10 μg/mL antigen, Day 50 of culturing, No Antigen Value 2149): 2256 RLU
- Proliferation (luminescent ATP assay), Mean (T-cell line 165-05G, 30 μg/mL antigen, Day 50 of culturing, No Antigen Value 2149): 2137 RLU
- Proliferation (luminescent ATP assay), Mean (T-cell line 165-B5G, 1 μg/mL antigen, Day 81 of culturing, No Antigen Value 2432): 4288 RLU
- Proliferation (luminescent ATP assay), Mean (T-cell line 165-B5G, 1.25 μg/mL antigen, Day 55 of culturing, No Antigen Value 846): 1054 RLU
- Proliferation (luminescent ATP assay), Mean (T-cell line 165-B5G, 2.5 μg/mL antigen, Day 55 of culturing, No Antigen Value 846): 1159 RLU
- Proliferation (luminescent ATP assay), Mean (T-cell line 165-B5G, 3 μg/mL antigen, Day 81 of culturing, No Antigen Value 2432): 5153 RLU
- Proliferation (luminescent ATP assay), Mean (T-cell line 165-B5G, 5 μg/mL antigen, Day 55 of culturing, No Antigen Value 846): 1687 RLU
- Proliferation (luminescent ATP assay), Mean (T-cell line 165-B5G, 10 μg/mL antigen, Day 55 of culturing, No Antigen Value 846): 3589 RLU
- Proliferation (luminescent ATP assay), Mean (T-cell line 165-B5G, 10 μg/mL antigen, Day 81 of culturing, No Antigen Value 2432): 11847 RLU
- Proliferation (luminescent ATP assay), Mean (T-cell line 165-B5G, 30 μg/mL antigen, Day 81 of culturing, No Antigen Value 2432): 11416 RLU
- Proliferation (luminescent ATP assay), Mean (T-cell line 165-C5G, 1.25 μg/mL antigen, autologous B-LCL): 485 RLU
- Proliferation (luminescent ATP assay), Mean (T-cell line 165-C5G, 2.5 μg/mL antigen, autologous B-LCL): 552 RLU
- Proliferation (luminescent ATP assay), Mean (T-cell line 165-C5G, 5 μg/mL antigen, autologous B-LCL): 585 RLU
- Proliferation (luminescent ATP assay), Mean (T-cell line 165-C5G, 10 μg/mL antigen, autologous B-LCL): 579 RLU
- Proliferation (luminescent ATP assay), Mean (T-cell line 165-E7G, 1 μg/mL antigen, Day 81 of culturing, No Antigen Value 2145): 3992 RLU
- Proliferation (luminescent ATP assay), Mean (T-cell line 165-E7G, 1.25 μg/mL antigen, autologous B-LCL, Day 55): 2983 RLU
- Proliferation (luminescent ATP assay), Mean (T-cell line 165-E7G, 2.5 μg/mL antigen, autologous B-LCL, Day 55): 3783 RLU
- Proliferation (luminescent ATP assay), Mean (T-cell line 165-E7G, 3 μg/mL antigen, Day 81 of culturing, No Antigen Value 2145): 5133 RLU
- Proliferation (luminescent ATP assay), Mean (T-cell line 165-E7G, 5 μg/mL antigen, autologous B-LCL, Day 55): 5821 RLU
- Proliferation (luminescent ATP assay), Mean (T-cell line 165-E7G, 10 μg/mL antigen, Day 81 of culturing, No Antigen Value 2145): 12006 RLU
- Proliferation (luminescent ATP assay), Mean (T-cell line 165-E7G, 10 μg/mL antigen, autologous B-LCL, Day 55): 5710 RLU
- Proliferation (luminescent ATP assay), Mean (T-cell line 165-E7G, 30 μg/mL antigen, Day 81 of culturing, No Antigen Value 2145): 12836 RLU
- Proliferation (luminescent ATP assay), Mean (T-cell line 165-E9G, 1 μg/mL antigen, Day 50 of culturing, No Antigen Value 1742): 1630 RLU
- Proliferation (luminescent ATP assay), Mean (T-cell line 165-E9G, 1.25 μg/mL antigen, autologous B-LCL): 142 RLU
- Proliferation (luminescent ATP assay), Mean (T-cell line 165-E9G, 2.5 μg/mL antigen, autologous B-LCL): 195 RLU
- Proliferation (luminescent ATP assay), Mean (T-cell line 165-E9G, 3 μg/mL antigen, Day 50 of culturing, No Antigen Value 1742): 1600 RLU
- Proliferation (luminescent ATP assay), Mean (T-cell line 165-E9G, 5 μg/mL antigen, autologous B-LCL): 233 RLU
- Proliferation (luminescent ATP assay), Mean (T-cell line 165-E9G, 10 μg/mL antigen, autologous B-LCL): 312 RLU
- Proliferation (luminescent ATP assay), Mean (T-cell line 165-E9G, 30 μg/mL antigen, Day 50 of culturing, No Antigen Value 1742): 2152 RLU
- Proliferation (luminescent ATP assay), Mean (T-cell line 165-E9G, 10 μpg/mL antigen, Day 50 of culturing, No Antigen Value 1742): 2341 RLU
- Proliferation (luminescent ATP assay), Mean (T-cell line 165-F5G, 1.25 μg/mL antigen, autologous B-LCL): 131 RLU
- Proliferation (luminescent ATP assay), Mean (T-cell line 165-F5G, 2.5 μg/mL antigen, autologous B-LCL): 143 RLU
- Proliferation (luminescent ATP assay), Mean (T-cell line 165-F5G, 5 μg/mL antigen, autologous B-LCL): 176 RLU
- Proliferation (luminescent ATP assay), Mean (T-cell line 165-F5G, 10 μg/mL antigen, autologous B-LCL): 110 RLU
- Proliferation (luminescent ATP assay), Mean (T-cell line 165-F10G, 1 μg/mL antigen, Day 50 of culturing, No Antigen Value 3752): 3363 RLU
- Proliferation (luminescent ATP assay), Mean (T-cell line 165-F10G, 1.25 μg/mL antigen, autologous B-LCL): 1012 RLU
- Proliferation (luminescent ATP assay), Mean (T-cell line 165-F10G, 2.5 μg/mL antigen, autologous B-LCL): 1389 RLU
- Proliferation (luminescent ATP assay), Mean (T-cell line 165-F10G, 3 μg/mL antigen, Day 50 of culturing, No Antigen Value 3752): 3061 RLU
- Proliferation (luminescent ATP assay), Mean (T-cell line 165-F10G, 5 μg/mL antigen, autologous B-LCL): 2620 RLU
- Proliferation (luminescent ATP assay), Mean (T-cell line 165-F10G, 10 μg/mL antigen, Day 50 of culturing, No Antigen Value 3752): 4823 RLU
- Proliferation (luminescent ATP assay), Mean (T-cell line 165-F10G, 10 μg/mL antigen, autologous B-LCL): 2505 RLU
- Proliferation (luminescent ATP assay), Mean (T-cell line 165-F10G, 30 μg/mL antigen, Day 50 of culturing, No Antigen Value 3752): 4568 RLU
